Columns and labels:
canarygrass = assay: Test D preemergence; assay type: in vivo, Phalaris minor; details: for pest or weed control at 16 g/ha / pest or weed control at 31 g/ha / pest or weed control at 62 g/ha / pest or weed control at 125 g/ha / pest or weed control at 250 g/ha: Phalaris minor, pre-emergence; for pest or weed control at 16 g/ha: read-out: Plant response rating, Canarygrass; for pest or weed control at 31 g/ha / pest or weed control at 62 g/ha / pest or weed control at 125 g/ha / pest or weed control at 250 g/ha: scale 0-100, read-out: Plant response rating, Canarygrass
From the text: (§1) Seeds of plant species selected from bluegrass (annual bluegrass, Poa annua), blackgrass (Alopecurus myosuroides), canarygrass (littleseed canarygrass, Phalaris minor), chickweed (common chickweed, Stellaria media), galium (catchweed bedstraw, Galium aparine), bromegrass, downy (downy bromegrass, Bromus tectorum), field poppy (Papaver rhoeas), field violet (Viola arvensis), green foxtail (Setaria viridis), deadnettle (henbit deadnettle, Lamium amplexicaule), Italian ryegrass (Lolium multiflorum), kochia (Kochia scoparia), lambsquarters (Chenopodium album), oilseed rape (Brassica napus), pigweed (Amaranthus retroflexus), chamomile (scentless chamomile, Matricaria inodora), Russian thistle (Salsola kali), speedwell (bird's-eye speedwell, Veronica persica), spring barley (Hordeum vulgare), spring wheat (Triticum aestivum), wild buckwheat (Polygonum convolvulus), wild mustard (Sinapis arvensis), wild oat (Avena fatua), wild radish (Raphanus raphanistrum), windgrass (Apera spica-venti), winter barley (Hordeum vulgare), and winter wheat (Triticum aestivum) were planted into a silt loam soil and treated preemergence with test chemicals formulated in a non-phytotoxic solvent mixture which included a surfactant.
(§2) At the same time, these species were planted in pots containing Redi-Earth® planting medium (Scotts Company, 14111 Scottslawn Road, Marysville, Ohio 43041) comprising spaghnum peat moss, vermiculite, wetting agent and starter nutrients and treated with postemergence applications of the test chemicals formulated in the same manner. Plants ranged in height from 2 to 18 cm (1- to 4-leaf stage). Treated plants and controls were maintained in a controlled growth environment for 7 to 21 days after which time all species were compared to controls and visually evaluated. Plant response ratings, summarized in Table D, are based on a scale of 0 to 100 where 0 is no effect and 100 is complete control. A dash (-) response means no test result.

Russian thistle [1] = assay: Test D preemergence; assay type: in vivo, Salsola kali; parameters: key: 0 = no effect, 100 = complete control
From the text: as §1, §2

field poppy = assay: Test D postemergence; assay type: in vivo, Papaver rhoeas; details: for pest or weed control at 16 g/ha / pest or weed control at 31 g/ha / pest or weed control at 62 g/ha / pest or weed control at 125 g/ha / pest or weed control at 250 g/ha: Papaver rhoeas, post-emergence; for pest or weed control at 16 g/ha: scale 0-100, read-out: Plant response rating, Field Poppy; for pest or weed control at 31 g/ha / pest or weed control at 62 g/ha / pest or weed control at 125 g/ha / pest or weed control at 250 g/ha: read-out: Plant response rating, Field Poppy
From the text: as §1, §2

Russian thistle [2] = assay: Test D postemergence; assay type: in vivo, Salsola kali
From the text: as §1, §2

surinam grass = assay: Test C postemergence; assay type: in vivo, Brachiaria decumbens; details: for Plant response rating (0 to 100), Surinam Grass: postemergence; for Plant response rating, Surinam Grass: Postemergence, scale 0 to 100 (0 no effect, 100 complete control)
From the text: (§3) Seeds of plant species selected from blackgrass (Alopecurus myosuroides), Italian ryegrass (Lolium multiflorum), wheat, winter (winter wheat, Triticum aestivum), galium (catchweed bedstraw, Galium aparine), corn (Zea mays), large (Lg) crabgrass (Digitaria sanguinalis), giant foxtail (Setaria faberii), johnsongrass (Sorghum halepense), lambsquarters (Chenopodium album), morningglory (Ipomoea coccinea), yellow nutsedge (Cyperus esculentus), pigweed (Amaranthus retroflexus), ragweed (common ragweed, Ambrosia elatior), soybean (Glycine max), barnyardgrass (Echinochloa crus-galli), oilseed rape (Brassica napus), waterhemp (common waterhemp, Amaranthus rudis), kochia (Kochia scoparia), wild oat (Avena fatua), surinam grass (Brachiaria decumbens), foxtail, green (green foxtail, Setaria viridis), goosegrass (Eleusine indica), bromegrass, downy (downy bromegrass, Bromus tectorum), nightshade (eastern black nightshade, Solanum ptycanthum), cocklebur (common cocklebur, Xanthium strumarium), cupgrass, woolly (woolly cupgrass, Eriochloa villosa), bermudagrass (Cynodon dactylon), sunflower, (common oilseed sunflower, Helianthus annuus), Russian thistle (Salsola kali), and velvetleaf (Abutilon theophrasti) were planted into a blend of loam soil and sand and treated preemergence with test chemicals formulated in a non-phytotoxic solvent mixture which included a surfactant.
(§4) At the same time, plants selected from these crop and weed species and also barley, winter (winter barley, Hordeum vulgare), windgrass (Apera spica-venti), chickweed (common chickweed, Stellaria media), deadnettle (henbit deadnettle, Lamium amplexicaule), and canarygrass (littleseed canarygrass, Phalaris minor) were planted in pots containing Redi-Earth® planting medium (Scotts Company, 14111 Scottslawn Road, Marysville, Ohio 43041) comprising spaghnum peat moss, vermiculite, wetting agent and starter nutrients and treated with postemergence applications of test chemicals formulated in the same manner. Plants ranged in height from 2 to 18 cm (1- to 4-leaf stage) for postemergence treatments. Treated plants and controls were maintained in a greenhouse for 13 to 15 days, after which time all species were compared to controls and visually evaluated. Plant response ratings, summarized in Table C, are based on a scale of 0 to 100 where 0 is no effect and 100 is complete control. A dash (-) response means no test result.

nightshade = assay: Test C preemergence; assay type: in vivo, Solanum ptycanthum; details: preemergence, scale 0 (no effect) to 100 (complete control)
From the text: as §3, §4

sunflower = assay: Test C preemergence; assay type: in vivo, Helianthus annuus; details: for Sunflower plant response rating: preemergence, scale 0 (no effect) to 100 (complete control)
From the text: as §3, §4

[3] = 16 g ai/ha, scale 0 (no effect) to 100 (complete control)
[4] = 31 g ai/ha, scale 0 (no effect) to 100 (complete control)
[5] = 31 g ai/ha, scale 0 to 100 (0 no effect, 100 complete control)
[6] = 62 g ai/ha, scale 0 to 100 (0 no effect, 100 complete control)
[7] = 250 g ai/ha, scale 0 to 100 (0 no effect, 100 complete control)
[8] = 125 g ai/ha, scale 0 to 100 (0 no effect, 100 complete control)

Row | SMILES | Plant response rating, Russian Thistle (Russian thistle [1]; [4]) | Plant response rating, Russian Thistle (Russian thistle [1]; 125 g ai/ha, scale 0-100) | Plant response rating, Russian Thistle (Russian thistle [1]; 250 g ai/ha, scale 0-100) | Plant response rating, Russian Thistle (Russian thistle [2]; [6]) | Plant response rating, Russian Thistle (Russian thistle [2]; [8]) | Plant response rating, Russian Thistle (Russian thistle [2]; [7]) | pest or weed control at 16 g/ha (canarygrass; [3]) [%] | pest or weed control at 31 g/ha (canarygrass; 31 g ai/ha) [%] | pest or weed control at 62 g/ha (canarygrass; 62 g ai/ha) [%] | pest or weed control at 125 g/ha (canarygrass; 125 g ai/ha) [%] | pest or weed control at 250 g/ha (canarygrass; 250 g ai/ha) [%] | pest or weed control at 16 g/ha (field poppy; 16 g ai/ha) [%] | pest or weed control at 31 g/ha (field poppy; [5]) [%] | pest or weed control at 62 g/ha (field poppy; [6]) [%] | pest or weed control at 125 g/ha (field poppy; [8]) [%] | pest or weed control at 250 g/ha (field poppy; [7]) [%] | further results
1 | Clc1cnc(Oc2ccccc2-n2cc(Cl)cn2)nc1 [Compound 3] | 0 | 40 | 40 | 10 | 10 | 20 | – | – | – | – | – | – | – | – | – | – | Plant response rating, Canarygrass (canarygrass; [3]): 0; Plant response rating, Canarygrass (canarygrass; 31 g ai/ha, scale 0-100): 0; Plant response rating, Canarygrass (canarygrass; 62 g ai/ha, scale 0-100): 0; Plant response rating, Canarygrass (canarygrass; 125 g ai/ha, scale 0-100): 0; Plant response rating, Canarygrass (canarygrass; 250 g ai/ha, scale 0-100): 25; Plant response rating, Russian Thistle (Russian thistle [1]; [3]): 0; Plant response rating, Russian Thistle (Russian thistle [1]; 62 g ai/ha, scale 0-100): 30; Plant response rating, Field Poppy (field poppy; 16 g ai/ha, scale 0-100): 10; Plant response rating, Field Poppy (field poppy; [5]): 0; Plant response rating, Field Poppy (field poppy; [6]): 0; Plant response rating, Field Poppy (field poppy; [7]): 0; Plant response rating, Russian Thistle (Russian thistle [2]; 16 g ai/ha, scale 0-100): 0; Plant response rating, Russian Thistle (Russian thistle [2]; [5]): 10
2 | Fc1cnc(Oc2ccccc2-n2cc(Br)cn2)nc1 [Compound 10, 2-[2-(4-bromo-1H-pyrazol-1-yl)phenoxy]-5-fluoropyrimidine] | – | – | – | – | – | – | – | – | – | – | – | – | – | – | – | – | Plant response rating (0 to 100), Surinam Grass (surinam grass; 125 g ai/ha): 15; Plant response rating (0 to 100), Surinam Grass (surinam grass; 250 g ai/ha): 15; Plant response rating, Surinam Grass (surinam grass; 31 g ai/ha, 13 to 15 days): 0; Plant response rating, Surinam Grass (surinam grass; 62 g ai/ha): 10
3 | FC(F)(F)c1cnn(-c2ccccc2Oc2ncc(Br)cn2)c1 [Compound 18, 5-bromo-2-[2-[4-(trifluoromethyl)-1H-pyrazol-1-yl]phenoxy]pyrimidine] | 10 | 40 | 95 | 50 | 60 | 100 | 10 | 25 | 65 | 100 | 100 | 80 | 75 | 75 | 100 | 100 | Nightshade plant response rating (nightshade; 62 g ai/ha): 30; Nightshade plant response rating (nightshade; 125 g ai/ha): 80; Nightshade plant response rating (nightshade; 250 g ai/ha): 95; Plant response rating, Russian Thistle (Russian thistle [1]; 62 g ai/ha, scale 0-100): 25; Sunflower plant response rating (sunflower; 62 g ai/ha): 0; Sunflower plant response rating (sunflower; 125 g ai/ha): 0; Sunflower plant response rating (sunflower; 250 g ai/ha): 40; Plant response rating, Sunflower (sunflower; Preemergence, 31 g ai/ha, scale 0 to 100, 0 no effect, 100 complete control): 0; Plant response rating, Russian Thistle (Russian thistle [2]; 16 g ai/ha, scale 0-100): 10; Plant response rating, Russian Thistle (Russian thistle [2]; [5]): 5
4 | N#Cc1cccc(Oc2ncc(Cl)cn2)c1-n1cc(C(F)(F)F)cn1 [Compound 58, 3-[(5-chloro-2-pyrimidinyl)oxy]-2-[4-(trifluoromethyl)-1H-pyrazol-1-yl]benzonitrile] | – | – | – | – | – | – | – | 20 | 55 | 100 | 100 | – | 80 | 85 | 100 | 100 | –
5 | N#Cc1cccc(Oc2ncc(Br)cn2)c1-n1cc(C(F)(F)F)cn1 [Compound 59, 3-[(5-bromo-2-pyrimidinyl)oxy]-2-[4-(trifluoromethyl)-1H-pyrazol-1-yl]benzonitrile] | – | – | – | – | – | – | – | 5 | 15 | 65 | 100 | – | 70 | 65 | 100 | 100 | –
6 | FC(F)(F)COc1cnn(-c2ccccc2Oc2ncc(Cl)cn2)c1 [Compound 138, 5-chloro-2-[2-[4-(2,2,2-trifluoroethoxy)-1H-pyrazol-1-yl]phenoxy]pyrimidine] | – | – | – | – | – | – | 10 | 10 | 20 | 40 | – | 30 | 35 | 40 | 75 | – | –
7 | FC(F)(F)c1cn(-c2ccccc2Oc2ncc(Cl)cn2)nn1 [Compound 166, 5-chloro-2-[2-[4-(trifluoromethyl)-1H-1,2,3-triazol-1-yl]phenoxy]pyrimidine] | – | – | – | – | – | – | 30 | 50 | 70 | 100 | – | 40 | 60 | 80 | 75 | – | –
8 | Fc1cccc(Oc2ncc(Cl)cn2)c1-n1cc(Br)cn1 [Compound 178, 2-[2-(4-bromo-1H-pyrazol-1-yl)-3-fluorophenoxy]-5-chloropyrimidine] | – | – | – | – | – | – | 10 | 60 | 60 | 95 | – | 45 | 55 | 65 | 75 | – | –
9 | N#Cc1cccc(Oc2ncc(Cl)cn2)c1-n1cc(-n2ccc(C(F)(F)F)n2)cn1 [Compound 284] | 0 | 20 | 30 | 75 | 85 | 95 | – | – | – | – | – | – | – | – | – | – | Plant response rating, Canarygrass (canarygrass; [4]): 30; Plant response rating, Canarygrass (canarygrass; 62 g ai/ha, scale 0-100): 25; Plant response rating, Canarygrass (canarygrass; 125 g ai/ha, scale 0-100): 35; Plant response rating, Canarygrass (canarygrass; 250 g ai/ha, scale 0-100): 60; Plant response rating, Field Poppy (field poppy; 31 g ai/ha, scale 0-100): 65; Plant response rating, Field Poppy (field poppy; [6]): 70; Plant response rating, Field Poppy (field poppy; [8]): 100; Plant response rating, Field Poppy (field poppy; [7]): 100; Plant response rating, Russian Thistle (Russian thistle [2]; 31 g ai/ha, scale 0-100): 65
